IC50 data for four compounds are collected here from patent publication US20220143179A1, “DRUG DELIVERY FOR COMBINATION OF EPIGENETIC MODULATION AND IMMUNE CHECKPOINT BLOCKADE” (NORTH CAROLINA STATE UNIVERSITY, priority 2019, published 2022).

This experiment deals with B16F10 melanoma cells. The experiment in a line: MTT assay, cytotoxicity of hypomethylating agents. The following applies: Mus musculus, read-out: IC50 against B16F10 melanoma cells. It is filed as cell-based. The method, then:
First, MTT assays were conducted to compare the cytotoxicity among these agents and determine the appropriate concentration to induce the expression of TAAs.
B16F10 cells were cultured into 96-well plates at a density of 5×10^3 cells per well overnight. […] Finally, the rate of cell viability was calculated according to the absorbance at 560 nm by a plate reader (Power Wave XS, Bio-TEK, USA).

Each structure is given as a SMILES string. Like-named read-outs stand apart in the source and are kept apart here.

The term IC50 denotes the concentration needed to halve the response being measured. For the compound `Nc1ncn([C@H]2C[C@H](O)[C@@H](CO)O2)c(=O)n1` [DAC, 5-Aza-2′-deoxycytidine], the IC50 (B16-F10, 72 h) was found to be 2.55 µM.

As to `O=c1ncccn1[C@@H]1O[C@H](CO)[C@@H](O)[C@H]1O` [Zeb, Zebularine], the IC50 (B16-F10, MTT, 72 h incubation) was 69.2 µM. For the compound `Nc1ncn([C@@H]2O[C@H](CO)[C@@H](O)[C@H]2O)c(=O)n1` [AC, 5-Azacytidine], the IC50 (B16-F10, MTT, 72 h incubation) worked out at 49 µM.

In the case of `Nc1nc(=O)n([C@H]2C[C@H](O)[C@@H](CO)O2)cc1F` [5-F, 5-Fluoro-2′-deoxycytidine], the half-inhibitory concentration (IC50) (B16-F10, MTT, 72 h incubation) was 1.05 µM.
